Test results from patent US20230203081A1, “LINCOSAMIDE ANTIBIOTICS AND USES THEREOF” (President and Fellows of Harvard College, priority 2020, published 2023).
≈ marks a conversion by molar mass, not a printed value.

Test system: broad panel of different clinical isolates
Assay: microbe, parasite or virus in culture
Format: cell-based
Summary of the method: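 Inoculum for broth microdilution was 5×10^5 CFU/mL final, prepared from overnight 35° C blood-agar subcultures (separate handling for streptococcal and anaerobic strains); MICs read by CLSI broth microdilution or agar dilution.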

Compound `CSC1O[C@H]([C@H](NC(=O)[C@H]2NC[C@@H]3C[C@H](CC(C)C)CCO[C@H]32)[C@H](C)Cl)C(O)[C@@H](O)[C@H]1O` (stereo partly shown) [FSA-513018b] has an MIC (Acinetobacter baumannii, A. baumannii HAV#651, Clinical) of 4 µg/mL (≈ 8.08 µM), an MIC (Acinetobacter baumannii, A. baumannii HAV#652 Clinical) of 8 µg/mL (≈ 16.2 µM) and an MIC (Acinetobacter baumannii, A. baumannii HAV#653, Clinical) of 4 µg/mL (≈ 8.08 µM). For the same compound, the MIC (Acinetobacter baumannii, A. baumannii HAV#654, Clinical) was 8 µg/mL (≈ 16.2 µM), the MIC (Acinetobacter baumannii, A. baumannii HAV#655, Clinical) was 8 µg/mL (≈ 16.2 µM) and the MIC (Acinetobacter baumannii, A. baumannii HAV#656, Clinical) was 16 µg/mL (≈ 32.3 µM). It also gave an MIC (Acinetobacter baumannii, A. baumannii HAV#657, Clinical) of 4 µg/mL (≈ 8.08 µM), an MIC (Acinetobacter baumannii, A. baumannii HAV#658, Clinical) of 4 µg/mL (≈ 8.08 µM) and an MIC (Acinetobacter baumannii, A. baumannii HAV#659, Clinical) of 8 µg/mL (≈ 16.2 µM). It also gave an MIC (Acinetobacter baumannii, A. baumannii HAV#660, Clinical) of 16 µg/mL (≈ 32.3 µM), an MIC (Acinetobacter baumannii, A. baumannii HAV#661, Clinical) of 8 µg/mL (≈ 16.2 µM) and an MIC (Acinetobacter baumannii, A. baumannii HAV#662, Clinical) of 8 µg/mL (≈ 16.2 µM). The MIC (Acinetobacter baumannii, A. baumannii HAV#663, Clinical) was 4 µg/mL (≈ 8.08 µM), the MIC (Acinetobacter baumannii, A. baumannii HAV#664, Carbapenem R) was 16 µg/mL (≈ 32.3 µM) and the MIC (Enterococcus faecalis, E. faecalis HAV#602, Clincal) was at most 0.06 µg/mL. It also gave an MIC (Enterococcus faecalis, E. faecalis HAV#607, Clinical) of 2 µg/mL (≈ 4.04 µM), an MIC (Enterococcus faecalis, E. faecalis HAV#609, Clinical) of 2 µg/mL (≈ 4.04 µM) and an MIC (Enterococcus faecalis, E. faecalis HAV#611, Line R & Vanco R) of 0.125 µg/mL (≈ 0.252 µM). It also gave an MIC (Enterococcus faecalis, E. faecalis HAV#612, Line R) of at most 0.06 µg/mL, an MIC (Enterococcus faecalis, S. faecalis 5060, Line R & Vanco R) of 0.125 µg/mL (≈ 0.252 µM) and an MIC (Enterococcus faecalis, S. faecalis 5074, Line R) of at most 0.06 µg/mL. The MIC (Enterococcus faecium, E. faecium HAV#317, Clinical) was 0.25 µg/mL (≈ 0.505 µM), the MIC (Enterococcus faecium, E. faecium HAV#324, Clinical) was 1 µg/mL (≈ 2.02 µM) and the MIC (Enterococcus faecium, E. faecium HAV#327, Clinical) was 0.06 µg/mL (≈ 0.121 µM). For the same compound, the MIC (Enterococcus faecium, E. faecium HAV#328, Clinical) was 1 µg/mL (≈ 2.02 µM), the MIC (Enterococcus faecium, E. faecium HAV#329, Clinical) was 1 µg/mL (≈ 2.02 µM) and the MIC (Enterococcus faecium, E. faecium HAV#604, Clinical) was 0.06 µg/mL (≈ 0.121 µM). For the same compound, the MIC (Enterococcus faecium, VRE, E. faecium HAV#319, Line R & Vanco R) was at most 0.06 µg/mL, the MIC (Enterococcus faecium, VRE, E. faecium HAV#320, Clinical) was 0.25 µg/mL (≈ 0.505 µM) and the MIC (Enterococcus faecium, VRE, E. faecium HAV#326, Clinical) was 0.25 µg/mL (≈ 0.505 µM). The MIC (Escherichia coli, E. coli HAV#501, Clinical) was 8 µg/mL (≈ 16.2 µM), the MIC (Escherichia coli, E. coli HAV#503, Clinical) was 8 µg/mL (≈ 16.2 µM) and the MIC (Escherichia coli, E. coli HAV#511, Clinical) was 4 µg/mL (≈ 8.08 µM). The MIC (Escherichia coli, E. coli HAV#512, Clinical) was 8 µg/mL (≈ 16.2 µM), the MIC (Escherichia coli, E. coli HAV#513, Clinical) was 16 µg/mL (≈ 32.3 µM) and the MIC (Escherichia coli, E. coli HAV#514, Clinical) was 8 µg/mL (≈ 16.2 µM). For the same compound, the MIC (Escherichia coli, E. coli HAV#516, ESBL-producing) was 8 µg/mL (≈ 16.2 µM), the MIC (Haemophilus influenzae, ATCC9007, H. influenzae HAV#376, ATCC-9007) was 0.5 µg/mL (≈ 1.01 µM) and the MIC (K. pneumnoniae HAV#402, FQ-R) was 16 µg/mL (≈ 32.3 µM). The MIC (Klebsiella pneumoniae, K. pneumoniae HAV#041, Clinical, KPC) was 32 µg/mL (≈ 64.6 µM), the MIC (Klebsiella pneumoniae, K. pneumoniae HAV#402, FQ-R) was 16 µg/mL (≈ 32.3 µM) and the MIC (Klebsiella pneumoniae, K. pneumoniae HAV#404, Clinical) was 32 µg/mL (≈ 64.6 µM). The MIC (Klebsiella pneumoniae, K. pneumoniae HAV#405, Clinical) was 16 µg/mL (≈ 32.3 µM), the MIC (Klebsiella pneumoniae, K. pneumoniae HAV#406, Clinical) was 64 µg/mL (≈ 129 µM) and the MIC (Klebsiella pneumoniae, K. pneumoniae HAV#407, Clinical) was 128 µg/mL (≈ 259 µM). It also gave an MIC (Klebsiella pneumoniae, K. pneumoniae HAV#408, Clinical) of 128 µg/mL (≈ 259 µM), an MIC (Klebsiella pneumoniae, K. pneumoniae HAV#409, ESBL-producing) of 16 µg/mL (≈ 32.3 µM) and an MIC (Neisseria gonorrhoeae, N. gonorrhoeae HAV#701, Clinical) of 0.125 µg/mL (≈ 0.252 µM). For the same compound, the MIC (Neisseria gonorrhoeae, N. gonorrhoeae HAV#702, Clinical) was 0.125 µg/mL (≈ 0.252 µM), the MIC (Staphylococcus aureus, MRSA, S. aureus HAV#218, Line R) was 0.125 µg/mL (≈ 0.252 µM) and the MIC (Staphylococcus aureus, MRSA, S. aureus HAV#220, Line R) was over 128 µg/mL. For the same compound, the MIC (Staphylococcus aureus, MSSA, S. aureus HAV#219, Line R) was over 128 µg/mL, the MIC (Staphylococcus aureus, S. aureus HAV#051, mecA, norA, spcl, ermA, aad1, aac6′-aph2″) was at most 0.03 µg/mL and the MIC (Staphylococcus aureus, S. aureus HAV#052, mecA, norA, fosB, blaZ) was at most 0.03 µg/mL. For the same compound, the MIC (Staphylococcus aureus, S. aureus HAV#053 mecA, norA, fosB) was at most 0.03 µg/mL.
